Results reported in patent USRE47689E1, “Compounds for treating spinal muscular atrophy” (PTC Therapeutics, Inc., priority 2011, dated 2019).
Like-named read-outs stand apart in the source and are kept apart here.

Legend:
[1] = test system: SMN2 minigene (full length SMN2 minigene mRNA containing SMN2 exon 7); assay: SMN2 minigene mRNA splicing RT-qPCR assay in cultured cells; assay type: cell-based, human; settings: Homo sapiens, HEK293-H, read-out: EC1.5x for production of full length SMN2 mRNA
How it was run: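 HEK293H cells stably carrying the SMN2-A minigene treated 24 h at 37° C with compound (DMSO, 200× stock), then lysed. Multiplex RT-qPCR (SMN primers 0.4 μM final; 40 cycles) measures full-length exon 7-containing minigene mRNA, normalized to GAPDH and to vehicle; EC1.5x derived and binned by stars.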

Smn protein = Smn protein assay in cultured cells (SMN HTRF); assay type: cell-based, human; settings: 48 hours; for EC1.5x (concentration giving 1.5-fold Smn protein increase): SMA Type 1 patient fibroblast cells (GM03813), 7-point concentration curve, SMN HTRF, concentration producing 1.5 times Smn protein vs DMSO vehicle control, read-out: EC1.5x for Smn protein expression; for maximum fold (Fold) increase of Smn protein: SMA patient fibroblast cells, 7-point concentration data, fold increase relative to vehicle control (SMN HTRF)
How it was run: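 Lysates in RIPA with protease inhibitors are incubated overnight at room temperature with HTRF anti-SMN antibodies. EC1.5x is derived from fold increase in ΔF over vehicle.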

[2] = HEK293H cells stably transfected with SMN2-A minigene, 24 hours, 7-point concentration curve, 1.5-fold relative to vehicle-treated cells

| melting point | Structure (SMILES) | EC (1.5-fold) [1, 2] | EC1.5x (concentration giving 1.5-fold Smn protein increase) (Smn protein) | maximum fold (Fold) increase of Smn protein (Smn protein) | EC (1.5-fold) ([1]; 24 h) |
| --- | --- | --- | --- | --- | --- |
| 207 to 217 °C | Cc1cn2cc(-c3cc4ccc(N5C[C@H]6CCCN(CCO)[C@H]6C5)cc4oc3=O)nc2c(C)n1 [Compound 785, 3-(6,8-dimethylimidazo[1,2-a]pyrazin-2-yl)-7-[(4aR,7aR)-1-(2-hydroxyethyl)octahydro-6H-pyrrolo[3,4-b]pyridin-6-yl]-2H-chromen-2-one] | < 0.1 µM | 1000 to 3000 nM | **** (fold increase between >1.5 and ≤1.65) |  |
| 178 to 181 °C | Cc1cn2cc(-c3cc4ccc(N5CCN[C@H](C)C5)cc4oc3=O)nc2s1 [Compound 231, 3-(2-methylimidazo[2,1-b][1,3]thiazol-6-yl)-7-[(3R)-3-methylpiperazin-1-yl]-2H-chromen-2-one] | 0.3 to 1 µM | 3000 to 10000 nM | ** (fold increase between >1.2 and ≤1.35) |  |
| 186 to 188 °C | Cc1cn2cc(-c3cc4ccc(OCCN[C@@H](C)CO)cc4oc3=O)nc2c(C)n1 [Compound 947, 3-(6,8-dimethylimidazo[1,2-a]pyrazin-2-yl)-7-(2-{[(2S)-1-hydroxypropan-2-yl]amino}ethoxy)-2H-chromen-2-one] | < 0.1 µM | < 300 nM | **** (fold increase between >1.5 and ≤1.65) |  |
| 161 to 164 °C | CN1CCCN(c2cc(F)c3cc(-c4cc(F)cc(F)c4)c(=O)oc3c2)CC1 [Compound 365, 3-(3,5-difluorophenyl)-5-fluoro-7-(4-methyl-1,4-diazepan-1-yl)-2H-chromen-2-one] | 1 to 3 µM |  | * (maximum fold increase of ≤1.2) |  |
| 295 to 298 °C | C[C@@H]1CN(c2ccc3cc(-c4cn5cccc(C(F)(F)F)c5n4)c(=O)oc3c2)C[C@H](C)N1 [Compound 211, 7-[(3R,5S)-3,5-dimethylpiperazin-1-yl]-3-[8-(trifluoromethyl)imidazo[1,2-a]pyridin-2-yl]-2H-chromen-2-one] | 0.3 to 1 µM |  | * (maximum fold increase of ≤1.2) |  |
| 260 °C (dec.) | Cc1ccc2nc(-c3cc4ccc(N5CCN(C(C)C)CC5)cc4oc3=O)cn2c1 [Compound 82, 3-(6-methylimidazo[1,2-a]pyridin-2-yl)-7-[4-(propan-2-yl)piperazin-1-yl]-2H-chromen-2-one] | 1 to 3 µM |  | ** (fold increase between >1.2 and ≤1.35) |  |
| 150 to 152 °C | Cc1cn2cc(-c3cc4ccc(N(C)C5CCN(Cc6ccccc6)C5)cc4oc3=O)nc2c(C)n1 (stereo not drawn) [Compound 616, 7-[(1-benzylpyrrolidin-3-yl)(methyl)amino]-3-(6,8-dimethylimidazo[1,2-a]pyrazin-2-yl)-2H-chromen-2-one] | 0.1 to 0.3 µM |  | ** (fold increase between >1.2 and ≤1.35) |  |
| 245 to 250 °C | O=c1oc2cc(N3CCN(CCO)CC3)ccc2cc1-c1cn2cc(Cl)ccc2n1 [Compound 104, 3-(6-chloroimidazo[1,2-a]pyridin-2-yl)-7-[4-(2-hydroxyethyl)piperazin-1-yl]-2H-chromen-2-one] | 3 to 30 µM |  | *** (fold increase between >1.35 and ≤1.5) |  |
| 186 to 188 °C | CCOc1ncccc1-c1cc2ccc(N3CCNCC3)cc2oc1=O [Compound 256, 3-(2-ethoxypyridin-3-yl)-7-(piperazin-1-yl)-2H-chromen-2-one] | 3 to 30 µM |  | * (maximum fold increase of ≤1.2) |  |

Second part, the molecule before the results:

| Structure (SMILES) | melting point | EC (1.5-fold) [1, 2] | EC1.5x (concentration giving 1.5-fold Smn protein increase) (Smn protein) | maximum fold (Fold) increase of Smn protein (Smn protein) | EC (1.5-fold) ([1]; 24 h) |
| --- | --- | --- | --- | --- | --- |
| Cc1cc(F)c2nc(-c3cc4ccc(N5CCN(C)[C@H](C)C5)cc4oc3=O)cn2c1 [Compound 533, 7-[(3R)-3,4-dimethylpiperazin-1-yl]-3-(8-fluoro-6-methylimidazo[1,2-a]pyridin-2-yl)-2H-chromen-2-one] | 269 to 277 °C | < 0.1 µM | < 300 nM | **** (fold increase between >1.5 and ≤1.65) |  |
| Cc1cccn2cc(-c3cc4ccc(N5C[C@@H](C)N[C@@H](C)C5)cc4oc3=O)nc12 [Compound 136, 7-[(3R,5S)-3,5-dimethylpiperazin-1-yl]-3-(8-methylimidazo[1,2-a]pyridin-2-yl)-2H-chromen-2-one] | 243 to 246 °C | 1 to 3 µM |  | ** (fold increase between >1.2 and ≤1.35) |  |
| CN1CCN(c2ccc3cc(-c4cn5cccc(C(F)(F)F)c5n4)c(=O)oc3c2)CC1 [Compound 210, 7-(4-methylpiperazin-1-yl)-3-[8-(trifluoromethyl)imidazo[1,2-a]pyridin-2-yl]-2H-chromen-2-one] | 235 to 237 °C | 0.3 to 1 µM |  | * (maximum fold increase of ≤1.2) |  |
| Cc1nn2cc(-c3cc4ccc(N5CCCN(C)CC5)cc4oc3=O)nc2s1 [Compound 451, 7-(4-methyl-1,4-diazepan-1-yl)-3-(2-methylimidazo[2,1-b][1,3,4]thiadiazol-6-yl)-2H-chromen-2-one] | 191 to 195 °C | 1 to 3 µM |  | *** (fold increase between >1.35 and ≤1.5) |  |
| CC1(C)CN(c2ccc3cc(-c4cn5cccc(F)c5n4)c(=O)oc3c2)CCN1 [Compound 507, 7-(3,3-dimethylpiperazin-1-yl)-3-(8-fluoroimidazo[1,2-a]pyridin-2-yl)-2H-chromen-2-one] | 180 to 182 °C | 0.1 to 0.3 µM | < 300 nM | **** (fold increase between >1.5 and ≤1.65) |  |
| Cc1cn2cc(-c3cc4ccc(N5CC[C@H](CN)C5)cc4oc3=O)nc2c(C)n1 [Compound 950, 7-[(3R)-3-(aminomethyl)pyrrolidin-1-yl]-3-(6,8-dimethylimidazo[1,2-a]pyrazin-2-yl)-2H-chromen-2-one] | 196 to 198 °C | 0.1 to 0.3 µM | 1000 to 3000 nM | *** (fold increase between >1.35 and ≤1.5) |  |
| Cc1cnc2nc(-c3cc4ccc(N5CCNCC5)cc4oc3=O)cn2c1 [Cpd 241, 3-(6-methylimidazo[1,2-a]pyrimidin-2-yl)-7-(piperazin-1-yl)-2H-chromen-2-one] | > 300 °C | 0.3 to 1 µM |  | * (maximum fold increase of ≤1.2) |  |
| CN1CCN(c2ccc3cc(-c4ccn(C)n4)c(=O)oc3c2)CC1 [Compound 73, 7-(4-methylpiperazin-1-yl)-3-(1-methyl-1H-pyrazol-3-yl)-2H-chromen-2-one] | 183 to 186 °C |  |  | ** (fold increase between >1.2 and ≤1.35) | 3 to 30 µM |
| CCCN1CCN(c2ccc3cc(-c4cn5cccc(Cl)c5n4)c(=O)oc3c2)CC1 [Compound 119, 3-(8-chloroimidazo[1,2-a]pyridin-2-yl)-7-(4-propylpiperazin-1-yl)-2H-chromen-2-one] | 245 to 247 °C | 0.3 to 1 µM |  | ** (fold increase between >1.2 and ≤1.35) |  |
